These results are taken from US8476197B2, “Aminopropenoates as fungicides” (priority 2009, dated 2013).

Marks after values point to notes of the source that are not given here.

The conditions of this data set: pH 2.7.
As for `CCOC(=O)C(C#N)=C(NC1CC1)c1cn(C)nc1C(F)F` [Compound 1124], the “Log P” value was 2.35^[a]. Then `CCCCC(C)NC(=C(C#N)C(=O)OCC)c1cn(C)nc1C(F)F` (stereo not drawn) [Compound 1125], with 3.58^[a]; and `CCOC(=O)C(C#N)=C(NC[Si](C)(C)C)c1cn(C)nc1C(F)F` [Compound 1126], with 3.35^[a]. The result for `C=CCNC(=C(C#N)C(=O)OCC)c1cn(C)nc1C(F)F` [Compound 1127] reads 2.35^[a]; that for `C#CCNC(=C(C#N)C(=O)OCC)c1cn(C)nc1C(F)F` [Compound 1128], 2.13^[a]; that for `CCOC(=O)C(C#N)=C(NC(CC(C)C)C(=O)OCC)c1cn(C)nc1C(F)F` (stereo not drawn) [Compound 1129], 3.53^[a]. The result for `CCOC(=O)C(C#N)=C(NC1CC1C)c1cn(C)nc1C(F)F` (stereo not drawn) [Compound 1130] reads 2.68^[a]; that for `CCOC(=O)C(C#N)=C(NC1C2CCCCC21)c1cn(C)nc1C(F)F` (stereo not drawn) [Compound 1131], 3.44^[a]; that for `CCOC(=O)C(C#N)=C(NC1(C#N)CC1)c1cn(C)nc1C(F)F` [Compound 1132], 2.1^[a]. Consider `CCOC(=O)C(C#N)=C(NC(C)C1CCC1)c1cn(C)nc1C(F)F` (stereo not drawn) [Compound 1133], for which the “Log P” value was 3.33^[a].

`CCOC(=O)C(C#N)=C(NC(C)C1CC2CCC1C2)c1cn(C)nc1C(F)F` (stereo not drawn) [Compound 1134]: the “Log P” value is 4.03^[a].

As for `CCOC(=O)C(C#N)=C(NC(C)COCC(C)(C)C)c1cn(C)nc1C(F)F` (stereo not drawn) [Compound 1135], the “Log P” value was 4.08^[a].

Regarding `CCOC(=O)C(C#N)=C(NC(C)CC1CC1)c1cn(C)nc1C(F)F` (stereo not drawn) [Compound 1136], the “Log P” value was 3.23^[a]. The result for `CCOC(=O)C(C#N)=C(NC(C(=O)NC)c1ccccc1)c1cn(C)nc1C(F)F` (stereo not drawn) [Compound 1137] reads 2.27^[a]. Then `CCOC(=O)C(C#N)=C(NC(C)CC(=O)Nc1ccccc1C)c1cn(C)nc1C(F)F` (stereo not drawn) [Compound 1138], with 2.68^[a]. Then `CCOC(=O)CC(C)NC(=C(C#N)C(=O)OCC)c1cn(C)nc1C(F)F` (stereo not drawn) [Compound 1139], with 2.66^[a]; and `CCOC(=O)C(C#N)=C(NC(C(=O)OC)c1ccccc1)c1cn(C)nc1C(F)F` (stereo not drawn) [Compound 1140], with 2.94^[a]. For the compound `CCOC(=O)C(C#N)=C(NC(C)C1CC=CCC1)c1cn(C)nc1C(F)F` (stereo not drawn) [Compound 1141], the “Log P” value is 3.62^[a]. Then `CC#CC(C)NC(=C(C#N)C(=O)OCC)c1cn(C)nc1C(F)F` (stereo not drawn) [Compound 1142], with 2.8^[a]; and `CC#CC1(NC(=C(C#N)C(=O)OCC)c2cn(C)nc2C(F)F)CCCC1` [Compound 1143], with 3.39^[a]; and `CCOC(=O)C(C#N)=C(NC1CC2CCC1C2)c1cn(C)nc1C(F)F` (stereo not drawn) [Compound 1144], with 3.46^[a].

Turning to `CCOC(=O)C(C#N)=C(NC1CC1CC)c1cn(C)nc1C(F)F` (stereo not drawn) [Compound 1146], the “Log P” value was 3.04^[a].

For `CCOC(=O)C(C#N)=C(NC1CC1C(F)(F)F)c1cn(C)nc1C(F)F` (stereo not drawn) [Compound 1147], the “Log P” value is 2.75^[a]. The result for `CCOC(=O)C(C#N)=C(NC1CC1(C)C)c1cn(C)nc1C(F)F` (stereo not drawn) [Compound 1148] reads 3^[a]. Then `CCOC(=O)C(C#N)=C(NC(C)c1ccc(F)cc1)c1cccnc1Cl` (stereo not drawn) [Compound 1149], with 3.51^[a]; and `CCOC(=O)C(C#N)=C(NC(C)c1ccc(C)cc1)c1cccnc1Cl` (stereo not drawn) [Compound 1150], with 3.87^[a]. Then `CCOC(=O)C(C#N)=C(NC(C)c1ccccc1)c1cccnc1Cl` (stereo not drawn) [Compound 1151], with 3.48^[a]; and `CCOC(=O)C(C#N)=C(NC(C)c1cccc(Cl)c1)c1cccnc1Cl` (stereo not drawn) [Compound 1152], with 3.83^[a]; and `CCOC(=O)C(C#N)=C(Nc1ccc(OC)cc1)c1cccnc1Cl` [Compound 1153], with 2.98^[a]. On to `CCOC(=O)C(C#N)=C(Nc1ccc(C(C)C)cc1)c1cccnc1Cl` [Compound 1154], for which the “Log P” value is 4.08^[a].
